# Results from US9120819B2, “FGF-receptor agonist dimeric compounds” (SANOFI, priority 2006, dated 2015).
# What was measured:
# [1] = test system: human vein endothelial cells (HUVECs); experiment: In vitro angiogenesis model (HUVEC rearrangement on matrigel, pseudotubule length); assay type: cell-based; details: at a concentration of 10 nM, 24 hours
# Procedure: In vitro Angiogenesis Model
# The products are tested in terms of inducing the rearrangement of human vein endothelial cells (HUVECs) on matrigel (Becton dickinson 356230) diluted in collagen (rat tail collagen, type I: Becton dickinson 354236). After 24 hours, the cells are observed under the microscope with a X4 objective and the length of the pseudotubules is measured by means of an image analyser (BIOCOM-Visiolab 2000 software).
# C57 mice = experiment: Model of post-ischaemic leg revascularization in mice; assay type: in vivo; details: 30 mg/kg/day administered subcutaneously for 7 days
# Procedure: Model of Post-Ischaemic Leg Revascularization in Mice
# The experiment is carried out on C57 mice (IFFA CREDO France).
# The animals are anaesthetized by intraperitonal injection, in a volume of 10 ml/kg, of a solution of 50 mg/kg ketamine (Ketamine 1000 Virbac®, Virbac Carros France) and 10 mg/kg xylazine (Rompun 2%®, Bayer Pharma Puteaux France). The animal is placed so that it is lying on its back, and after shaving and disinfection of the skin by painting with Vetedine® solution (Vetoquinol S.A. Lure France), an incision is made in the inguinal region. The femoral artery is excized, the collateral arteries are cauterized and the external and circumflex iliac arteries are ligatured. The skin is sutured with separate stitches using non-resorbable thread. The animals are placed in the recovery room, the temperature of which is regulated at 25° C., until they are completely awake.
# The distal perfusion is measured using a laser Doppler scanner (LDPI Lisca Perimed model PIM II, AB Sweden). This technique makes it possible to measure the cutaneous perfusion of the upper part of the back legs. […] Measurements are carried out successively on the healthy leg and on the leg rendered ischaemic in order to establish a perfusion deficit expressed as %. […]
# FGF-R1β-hMp1 = experiment: Baf/3-FGFR1β proliferation model; assay type: cell-based, murine; details: at a concentration of 30 μM
# Procedure: (§1) Baf/3-FGFR1β or FGF-R4α Proliferation Model
# (§2) Obtaining the Chimeric Receptor Constructs
# (§3) The chimeric receptors are made up of the intracellular portion of hMp1 (NM_005373) and the transmembrane and extracellular domains of FGF-R1β or FGF-R4α.
# (§4) For each FGF receptor, the FGF-R (BamHI-SacI) and hMp1 (SacI-NotI) fragments are simultaneously cloned into the vector pEF6 (Invitrogen) digested with BamHI and NotI.
# (§5) Murine BaF/3 cells are transfected by electroporation. 20 μg of plasmid carrying the constructs FGF-R1β-hMp1 or FGF-R4α-hMp1 are mixed with 5×10^6 cells taken up in 800 μl of RPMI (invitrogen). The mixture is subjected to two electric shocks of 400 V with an interval of 0.1 ms. The cells are taken up for 48 h in an RPMI medium containing 10% FCS (foetal calf serum, gibco), glutamine (invitrogen), NEAA (nonessential amino acids, invitrogen), NaPyr (sodium pyruvate, invitrogen) and 10 ng/ml of IL-3, before being selected with 10 μg/ml of blasticidin (Cayla).
# (§6) Culture of Transfected Cells […]
# (§7) A confluent culture of BaF/3 cells carrying the chimeric receptors is passaged one-in-three in culture medium supplemented with IL-3 (10 ng/ml) for 24 h. […] The plates are incubated for 28 h at 37° C. and then 100 μl of Cell Titer Glo (Promega) are added and the amount of ATP is quantified using a luminometer (Luminoskan Ascent, Labsystems).
# FGF-R4α-hMp1 = experiment: Baf/3-FGF-R4α proliferation model; assay type: cell-based, murine; details: at a concentration of 30 μM
# Procedure: as §1, §2, §3, §4, §5, §6, §7
compound,measurement,setting,value
"COc1c(C)c(C(=O)c2ccc(N)c(C(=O)[O-])c2)n2cccc(OCCOCCOCCOCCOCCOCCOc3cccn4c(C(=O)c5ccc(N)c(C(=O)[O-])c5)c(C)c(OC)c34)c12.[Na+].[Na+] [Example 2, disodium salt of 3,3′-{3,6,9,12,15-pentaoxaheptadecane-1,17-diylbis[oxy(1-methoxy-2-methylindolizine-8,3-diyl)carbonyl]}bis(6-aminobenzoic acid)]",activity on the in vitro angiogenesis model,[1],active
"COc1cc(C(=O)c2nc(-c3cccc(C(=O)[O-])c3)c3c(OCCOCCOCCOCCOCCOCCOc4cccn5c(C(=O)c6ccc(N)c(OC)c6)nc(-c6cccc(C(=O)[O-])c6)c45)cccn23)ccc1N.[Na+].[Na+] [Example 8, Disodium salt of 3,3′-(3,6,9,12,15-pentaoxaheptadecane-1,17-diylbis{oxy[3-(4-amino-3-methoxybenzoyl)imidazo[1,5-a]pyridine-8,1-diyl]})dibenzoic acid]",activity on the in vitro angiogenesis model,[1],active
"Cc1c(OCCOCCOCCOCCOCCOCCOCCOc2c(C)c(C(=O)c3ccc(N)c(C(=O)[O-])c3)n3ccccc23)c2ccccn2c1C(=O)c1ccc(N)c(C(=O)[O-])c1.[Na+].[Na+] [Example 21, Disodium salt of 3,3′-{3,6,9,12,15,18-hexaoxaicosane-1,20-diylbis[oxy(2-methylindolizine-1,3-diyl)carbonyl]}bis(6-aminobenzoic acid)]",activity in the ischaemic leg model (post-ischaemic perfusion recovery),C57 mice,significant activity
Cc1c(NC(=O)c2cccc(OCC(=O)NCCNC(=O)COc3cccc(C(=O)Nc4c(C)c(C(=O)c5ccc(N)c(C(=O)[O-])c5)n5ccccc45)c3)c2)c2ccccn2c1C(=O)c1ccc(N)c(C(=O)[O-])c1.[Na+].[Na+] [Example 44],activity on the Baf/3-FGFR1β proliferation,FGF-R1β-hMp1,active
same,activity on the Baf/3-FGF-R4α proliferation,FGF-R4α-hMp1,active
